Series [1] has as its system plasma proteins. The series can be described thus: Plasma protein binding (RED), mouse plasma. In kind it is in vitro ADME. Here is the method: The plate containing plasma and buffer was equilibrated for 6 h in a 37°C water shaking bath. After incubation, aliquots of buffer and plasma (20 µL) on both sides were collected and precipitated using organic solvents. […] The post-dialysis recovery of amdizalisib was also measured.

For series [2], the system named is CYP2C9. The series can be described thus: CYP induction in human hepatocytes, CYP2C9 enzyme activity. As to the method: (§1) […] […] […] Enzyme activity for each CYP isoform was reported as a fold change over vehicle control and the percent of positive control (detailed calculation in Supplementary 1.1). Hepatocytes were harvested with a lysis buffer from RNeasy 96 Kit (Qiagen Inc., Germantown, MD, USA) to isolate RNA, which was analyzed by real-time quantitative polymerase chain reaction (RT-PCR). […] Emax (the maximal observed induction) and EC50 (the concentration that supports half-maximal induction) were estimated by non-linear regression of fold increase in CYP mRNA expression versus concentration plots.
(§2) The fold of vehicle control and the percent of positive control were calculated with the formulas below:
(§3) Fold of vehicle control = CYPs activity of test compound (or positive control) treated sample / CYPs activity of vehicle control treated sample
(§4) % of positive control = [(fold change in treated sample)-1] / [(fold change in positive control)-1] × 100
(§5) Based on the enzyme activity, a minimum of 2-fold increase compared to vehicle control for the positive control and ≥40% of the positive control for the test article was considered as the cutoff for a positive signal in in vitro induction assay.

Series [3] relates to CYP2C8. The series can be described thus: CYP induction in human hepatocytes, CYP2C8 enzyme activity. Here is the method: as §1, §2, §3, §4, §5
Series [4] has as its target T1, CYP2B6 (Homo sapiens, UniProt P20813).
T1 construct: tissue Life Technologies (Durham, NC, USA); host or cells: human liver microsomes
T1 sequence (P20813 1-491): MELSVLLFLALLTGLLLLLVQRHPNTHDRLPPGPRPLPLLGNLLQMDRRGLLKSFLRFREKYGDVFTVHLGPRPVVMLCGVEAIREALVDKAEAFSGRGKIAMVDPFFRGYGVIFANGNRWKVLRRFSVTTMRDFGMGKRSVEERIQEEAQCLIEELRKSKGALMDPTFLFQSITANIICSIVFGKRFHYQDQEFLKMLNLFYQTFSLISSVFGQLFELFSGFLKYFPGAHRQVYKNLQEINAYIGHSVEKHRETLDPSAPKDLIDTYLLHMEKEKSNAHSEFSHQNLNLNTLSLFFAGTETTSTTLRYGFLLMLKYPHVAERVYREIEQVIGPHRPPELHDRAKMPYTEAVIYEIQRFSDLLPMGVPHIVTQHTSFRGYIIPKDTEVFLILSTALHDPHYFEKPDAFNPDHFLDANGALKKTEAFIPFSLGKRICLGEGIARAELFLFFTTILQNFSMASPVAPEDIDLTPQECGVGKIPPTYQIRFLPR
The series is described as follows: Time-dependent CYP inhibition in HLM, CYP2B6. In kind it is in vitro ADME. The settings on record: 10 μM, 30 min pre-incubation with NADPH. As to the method:
The procedure of time-dependent CYP inhibition was similar to that used for CYP reversible inhibition, as mentioned above, except that a pre-incubation step was added. […] Another appropriate volume of the NADPH-regenerating system and probe substrate were added to initiate the CYP isoform enzyme activity test step. For this step, the incubation period was 10 min, except for CYP2B6, CYP2C8, and CYP3A4/5 (probe substrate: midazolam), which was 3 min to make sure the reaction was under initial linear rates. After incubation for the designated time periods at 37°C, the ice-cold acetonitrile containing IS was added to quench the reaction. […] (Ainactivator/[…] represents the enzyme activity remaining due to the inhibition by the diluted inactivator in the enzyme activity test step, and (Ainactivator/[…] represents the remaining enzyme activity due to pre-incubation loss plus inhibition by the diluted inactivator in the enzyme activity test step.

Series [5] deals with T2, CYP2C8 (Homo sapiens, UniProt P10632).
T2 construct: tissue Life Technologies (Durham, NC, USA); host or cells: human liver microsomes
T2 sequence (P10632 1-490): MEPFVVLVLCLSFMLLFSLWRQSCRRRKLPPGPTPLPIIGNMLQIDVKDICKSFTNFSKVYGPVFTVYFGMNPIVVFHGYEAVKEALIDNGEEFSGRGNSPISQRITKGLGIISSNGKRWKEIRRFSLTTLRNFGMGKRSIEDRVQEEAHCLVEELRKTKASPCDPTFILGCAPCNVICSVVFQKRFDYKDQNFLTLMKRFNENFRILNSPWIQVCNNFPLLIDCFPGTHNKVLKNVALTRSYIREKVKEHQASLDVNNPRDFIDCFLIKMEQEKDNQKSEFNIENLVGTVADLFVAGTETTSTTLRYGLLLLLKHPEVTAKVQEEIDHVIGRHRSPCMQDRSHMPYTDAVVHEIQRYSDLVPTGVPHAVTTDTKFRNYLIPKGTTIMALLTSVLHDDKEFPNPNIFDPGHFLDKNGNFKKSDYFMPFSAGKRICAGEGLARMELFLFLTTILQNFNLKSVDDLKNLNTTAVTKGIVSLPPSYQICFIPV
The series can be described thus: Reversible CYP inhibition in HLM, CYP2C8 (paclitaxel). The settings on record: for enzyme activity remaining: CYP2C8, HLM. In kind it is in vitro ADME. Here is the method:
The markers used to determine the activities of CYP isoforms were phenacetin O-deethylation for CYP1A2 (probe substrate: 50 µM phenacetin), bupropion hydroxylation for CYP2B6 (probe substrate: 70 µM bupropion), paclitaxel 6α-hydroxylation for CYP2C8 (probe substrate: 10 µM paclitaxel), diclofenac 4′-hydroxylation for CYP2C9 (probe substrate: 5 µM diclofenac), S-(+)-mephenytoin 4′-hydroxylation for CYP2C19 (probe substrate: 20 µM S-(+)-mephenytoin), dextromethorphan O-demethylation for CYP2D6 (probe substrate: 6 µM dextromethorphan), chlorzoxazone 6′-hydroxylation for CYP2E1 (probe substrate: 70 µM chlorzoxazone), and testosterone 6β-hydroxylation and midazolam 1′-hydroxylation for CYP3A4/5 (probe substrate: 45 µM testosterone and 5 µM midazolam). […] Alpha-naphthoflavone (0.04 µM), 2-phenyl-2-(1-piperidinyl)propane (5 µM), quercetin (1 µM), sulfaphenazole (0.5 µM), ticlopidine (4 µM), quinidine (0.2 µM), diethyldithiocarbamate (20 µM), and ketoconazole (0.05 µM) were used as positive inhibitors of CYP1A2, 2B6, 2C8, 2C9, 2C19, 2D6, 2E1, and 3A4, respectively. The vehicle control was prepared in the same composition as inhibitor solutions but free of inhibitors. The concentrations of probe substrates were close to Km values that were determined in-house and within the range recommended by the FDA ([Huang et al., 2007]). Reaction mixtures were incubated at 37°C for 5, 20, or 30 min, depending on the probe substrates of CYP isoforms. The reactions were terminated by adding cold acetonitrile containing IS, and the terminated incubation mixtures were centrifuged at 3,000 g for 10 min before LC-MS/MS analysis.

“And” between values parts separate entries of the source, which are not always exact repeats. Identical values can stand only once.

On to `C[C@H](Nc1ncnc(N)c1C#N)c1cc2ncc(Cl)n2nc1-c1ccccc1` [Amdizalisib], for which the “Binding fraction to plasma proteins, Mouse” value in series [1] (1 µM) is on record as 91.5 ± 1.01%; in series [1] (mouse, 6 h, 0.1 µM, pH 7.4), 91.1 ± 0.95%; in series [1] (mouse, 6 h, 20 µM, pH 7.4), 91.3 ± 0.89%. In addition, the “Enzyme activity Percent of PC (%)” value in series [2] (CYP2C9, donor eight, 20 µM) turned out to be 14.5%; in series [2] (female, human, 48 h, 0.3 µM), 5.63%; in series [2] (female, human, 48 h, 3 µM) it was 30.0%; in series [2] (female, human, 48 h, 20 µM), 38.1%; in series [2] (male, human, 48 h, 20 µM), 36.5%; in series [3] (CYP 2C8, donor one, 3 µM), 10.8%. Further, the “Enzyme activity Percent of PC (%)” value is listed as 5.21% in series [3] (female, human, 48 h, 0.3 µM) and -19.4% in series [3] (female, human, 48 h, 20 µM). Besides, in series [4], the “activity loss of CYP2B6” value was “less than 10%”. Further, the enzyme activity remaining in series [5] (0.08 μM) was 110% and 105%; in series [5] (0.4 μM) it was 105% and 109%; in series [5] (2 μM), 98.8% and 104%; in series [5] (10 μM) it was 67.3% and 76.5%; in series [5] (50 μM), 38.0% and 39.6%. The molecule also came in with an IC50 in series [5] (HLM, reversible, without pre-incubation) of 30.4 µM.

(Values after article PMC11211886 (Frontiers in Pharmacology, 2024).)
